{"source": "patent US20110294881A1", "about": "“METHODS FOR TREATING LOWER URINARY TRACT DISORDERS USING alpha2delta SUBUNIT CALCIUM CHANNEL MODULATORS WITH SMOOTH MUSCLE MODULATORS” (EDUSA PHARMACEUTICALS, INC., priority 2003, published 2011)", "key": {"[1]": {"tested_on": "α2δ subunit of calcium channels", "conditions": "Bryans et al. (1999) Med. Res. Rev. 19:149-177; cited from earlier work"}, "[2]": {"conditions": "preclinical and clinical studies; broad range of oral doses; cited from earlier work"}, "[3]": {"tested_on": "female rats, dilute acetic acid irritated bladder", "assay": "Dilute acetic acid model, acute anesthetized rats: bladder capacity by cystometry", "type": "in vivo, rat", "conditions": "Example 1; for effectiveness of drug alone on bladder capacity: i.v.; for effective dose range of the drug in combination versus the drug alone (isobologram): individual animals, return to 31% of saline control, FIG. 4", "protocol": "(§1) Urethane anesthetized (1.2 g/kg) normal female rats were utilized in this study.\n(§2) Animals were dosed by volume of injection=body weight in kg.\nAnimal Preparation: Female rats (250-300 g body weight) were anesthetized with urethane (1.2 g/kg) and a saline-filled catheter (PE-50) was inserted into the jugular vein for intravenous drug administration. […] The abdominal cavity was moistened with saline and closed by covering with a thin plastic sheet in order to maintain access to the bladder for emptying purposes. Fine silver or stainless steel wire electrodes were inserted into the external urethral sphincter (EUS) percutaneously for electromyography (EMG).\nFollowing 30 minutes of AA infusion, 3 vehicle injections were made at 20 minute intervals to determine vehicle effects, if any.\nP<0.050 was considered significant.\nas §1, §2"}, "[4]": {"tested_on": "female cats, dilute acetic acid irritated bladder", "assay": "Dilute acetic acid model in cats: bladder capacity and voiding efficiency", "type": "in vivo", "conditions": "cat; 30 mg/kg dose alone", "procedure": "Alpha-chloralose anesthetized (50-100 mg/kg) normal female cats (2.5-3.5 kg; Harlan) were utilized in this study.\nFemale cats (2.5-3.5 kg; Harlan) had their food removed the night before the experiment. The following morning, the cat was anesthetized with isoflurane and prepped for surgery using aseptic technique. Polyethylene catheters were surgically placed to permit the measurement of bladder pressure, urethral pressure, arterial pressure, respiratory rate as well as for the delivery of drugs. Fine wire electrodes were implanted alongside the external urethral anal sphincter. Following surgery, the cats were slowly switched from the gas anesthetic isoflurane (2-3.5%) to alpha-chloralose (50-100 mg/kg). During control cystometry, saline was slowly infused into the bladder (0.5-1.0 ml/min) for 1 hour. The control cystometry was followed by 0.5% acetic acid in saline for the duration of the experiment. After assessing the cystometric variables under these baseline conditions, the effects of test drug(s) on micturition were determined via a 3-5 point dose response protocols.\nFor the purposes of assessing synergy using all of the data simultaneously, bladder capacity data for each animal were normalized to % Recovery from Irritation, and this index was used as the measure of efficacy. […]"}, "SCI rats": {"tested_on": "SCI rats", "conditions": "Cheng et al., 1995, Brain Res. 678:40-48; cited from earlier work"}}, "data": [{"smiles": "CC(C)C[C@H](CN)CC(=O)O", "note": "[Pregabalin, (S)-(3-aminomethyl)-5-methylhexanoic acid]", "values": [{"measurement": "binding affinity for the α2δ subunit of calcium channels relative to gabapentin", "setting": "[1]", "value": "even higher binding affinity"}]}, {"smiles": "CC(OC(=O)NCC1(CC(=O)O)CCCCC1)OC(=O)C(C)C", "note": "(stereo not drawn) [XP13512]", "values": [{"measurement": "blood levels of gabapentin after oral prodrug", "setting": "[2]", "value": "dose proportional blood levels of gabapentin"}]}, {"smiles": "NCC1(CC(=O)O)CCCCC1", "note": "[gabapentin, 1-(aminomethyl)cyclohexaneacetic acid]", "values": [{"measurement": "effectiveness of drug alone on bladder capacity", "setting": "[3]", "value": "modest effectiveness"}, {"measurement": "effective dose range of the drug in combination versus the drug alone (isobologram)", "setting": "[3]", "value": "significantly lower"}, {"measurement": "effect on bladder capacity", "setting": "[4]", "value": "no significant effect"}]}, {"smiles": "COc1cc(CNC(=O)CCCC/C=C/C(C)C)ccc1O", "note": "[capsaicin]", "values": [{"measurement": "bladder capacity to voiding", "setting": "SCI rats", "value": "not effect bladder capacity to voiding"}, {"measurement": "bladder instability", "setting": "SCI rats", "value": "reduce bladder instability"}]}, {"smiles": "CCN(CC)CC#CCOC(=O)C(O)(c1ccccc1)C1CCCCC1", "note": "(stereo not drawn) [oxybutynin, 4-diethylaminio-2-butynyl phenylcyclohexyglycolate]", "values": [{"measurement": "effectiveness of drug alone on bladder capacity", "setting": "[3]", "value": "modest effectiveness"}, {"measurement": "effective dose range of the drug in combination versus the drug alone (isobologram)", "setting": "[3]", "value": "significantly lower"}]}]}
